# Results taken from patent US11311548B2, “Cancer therapy” (Aslan Pharmaceuticals Pte. Ltd., priority 2017, dated 2022).
# Entries after “also recorded” stand apart in the source; their conditions may differ.
# Tests used:
# AD345 primary MDS cells = test: FACs analysis of primary MDS cells; format: cell-based; conditions: 96 hours
# Protocol: (§1) AD345 primary MDS cells (refractory cytopenia with multilineage dysplasia, normal karyotype) and AD537 primary MDS bone marrow cells (refractory cytopenia with multilineage dysplasia, karyotype 46, XY, 43.1% myeloid) were treated with ASLAN003 (4000 nM) or DMSO control for 96 hours. A FACs analysis was then performed using Pacific blue dye. The AD537 cells were also stained with Wright-Giemsa and NBT reduction.
# [1] = system: Multiple myeloma (MM) cell lines; test: CellTiter-Glo Luminescent Cell Viability Assay, MM cell lines; format: cell-based, human; conditions: increasing dose, 48 hours
# Protocol: (§2) Multiple myeloma (MM) or chronic myeloid leukaemia (CML) cell lines were seeded at 20,000 cells in 100 μL of medium in 96-well format and treated with increasing dose of ASLAN003 for 48 hours. DMSO was used as control. The CellTiter-Glo® Luminescent Cell Viability Assay, which is a homogeneous method of determining the number of viable cells in culture based on quantitation of the ATP present, i.e. an indicator of metabolically active cells was then performed on the cell lines.
# MOLM-14 xenograft = MOLM-14 xenograft model in NSG mice; format: in vivo
# Protocol: NSG mice were inoculated with MOLM-14 cells via tail vein injection. Treatment by oral gavage with either ASLAN003 (50 mg/kg QD) or vehicle control was started 3 days past inoculation. 11 mice were treated in the ASLAN003 group and 12 mice were treated in the vehicle control group. The following data is collected at the end of the experiment: […]
# HL-60 = test: Differentiation of AML cell line (CD11b/CD14 flow cytometry, NBT assay, Wright-Giemsa staining); format: cell-based; conditions: HL-60, FAB M2
# Protocol: (§3) The AML cell lines were dosed with the varying concentrations of ASLAN003 and differentiation of the cell lines were observed via upregulation of CD11b and CD14 on the cell surface via flow cytometry. Differentiation was also determined using the NBT assay and from morphological observations from Wright-Giemsa staining.
# THP-1 = test: as above; format: cell-based; conditions: THP-1, FAB M5
# Protocol: as §3
# KG-1 = test: as above; format: cell-based; conditions: KG-1, FAB M0/M1
# Protocol: as §3
# MOLM-14 = test: as above; format: cell-based; conditions: MOLM-14, FAB M5
# Protocol: as §3
# NB-4 = test: as above; format: cell-based; conditions: NB-4, FAB M3
# Protocol: as §3
# [2] = system: AD537 primary MDS bone marrow cells; test: FACs analysis of primary MDS bone marrow cells; format: cell-based; conditions: 96 hours
# Protocol: as §1
# [3] = system: chronic myeloid leukaemia (CML) cell lines; test: CellTiter-Glo Luminescent Cell Viability Assay, CML cell lines; format: cell-based, human; conditions: CML cell lines (K562, KCL-22), increasing dose, 48 hours
# Protocol: as §2
smiles,measurement,setting,value
"COc1cccc(-c2cc(F)c(Nc3ncccc3C(=O)O)c(F)c2)c1 [ASLAN003, 2-(3,5-difluoro-3′-methoxybiphenyl-4-ylamino) nicotinic acid]",increase in CD11b+CD14+ cells,"AD345 primary MDS cells; AD345, 4 μM",about 11%
same,increase in CD13+CD33+ cells,"AD345 primary MDS cells; AD345, 4 μM",about 12.3%
same,viability at 4 µM,"AD345 primary MDS cells; AD345, 4000 nM, DMSO control 93%, read-out: % viable cells",86.5%
same,Cell viability,[1],has the ability to reduce the viability
same,Survival of MOLM-14 xenograft mice,"MOLM-14 xenograft; 50 mg/kg QD oral gavage, vs vehicle",significantly (p=0.031) prolonged survival
same,Median survival,"MOLM-14 xenograft; MOLM-14 xenograft NSG mice, 50 mg/kg QD oral gavage from 3 days past inoculation, vehicle group 24 days",27 days
same,Leukaemic burden (percentage of CD45+ cells),"MOLM-14 xenograft; bone marrow, peripheral blood, spleen and liver, 50 mg/kg QD oral gavage, flow cytometry",significantly decreased leukaemic burden
same,Differentiation of leukaemic cells (hCD11b+ and hCD14+ cells),"MOLM-14 xenograft; bone marrow, 50 mg/kg QD oral gavage, flow cytometry",significantly induced differentiation
same,ASLAN003 Differentiation,HL-60,did not induce observed differentiation effects; also recorded: Negative
same,ASLAN003 Differentiation,THP-1,myeloid differentiation effects of ASLAN003 were observed; also recorded: Positive
same,ASLAN003 Differentiation,KG-1,myeloid differentiation effects of ASLAN003 were observed; also recorded: Positive
same,ASLAN003 Differentiation,MOLM-14,myeloid differentiation effects of ASLAN003 were observed; also recorded: Positive
same,ASLAN003 Differentiation,NB-4,did not induce observed differentiation effects; also recorded: Negative
same,increase in CD13+CD33+ cells,"[2]; AD537, 4 μM",about 12.3%
same,increase in CD14+ cells,"[2]; AD537, 4 μM",about 20%
same,increase of CD11b+ cells,"[2]; AD537, 4 μM",~30%
same,viability at 4 µM,"[2]; Bone marrow cell, AD537, 4000 nM, DMSO control 84.5%, read-out: % viable cells",73%
same,Cell viability,[3],has the ability to reduce the viability
